Experimental data as given in the supplement of paper PMC4862054.

Each compound was assayed on HCC1143 (assay: normalised viability (% of control), CellTiter-Blue; higher = more viable cells (about 100 = DMSO control)). Conditions: 100 nM; incubation time: 72 h.
Experimental: (§1)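 DSRT, CellTiter-Blue viability, 72 h incubation. Signal is normalised to DMSO and benzethonium chloride controls. Value is the normalised response at dose 3.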
With `Nc1ccccc1NC(=O)c1ccc(CNC(=O)OCc2cccnc2)cc1` [Entinostat] the normalised viability was 82.2%.
Work on `C=CC(=O)Nc1cc2c(Nc3ccc(F)c(Cl)c3)ncnc2cc1OCCCN1CCOCC1` [Canertinib] yielded a normalised viability of 90.1%.
For `CC[C@H](Nc1ncnc2[nH]cnc12)c1nc2cccc(F)c2c(=O)n1-c1ccccc1` [CAL-101], the normalised viability was 102%.
For `CCCCC(=O)OCC(=O)[C@]1(O)Cc2c(O)c3c(c(O)c2[C@@H](O[C@H]2C[C@H](NC(=O)C(F)(F)F)[C@H](O)[C@H](C)O2)C1)C(=O)c1c(OC)cccc1C3=O` [Valrubicin], the normalised viability was 86.4%.

What follows are compounds tested on MDA-MB-231 in the same assay as above. Conditions: 100 nM; incubation time: 72 h.
Experimental: as §1
With `Nc1ccccc1NC(=O)c1ccc(CNC(=O)OCc2cccnc2)cc1` [Entinostat] the normalised viability was 97.1%.
`C=CC(=O)Nc1cc2c(Nc3ccc(F)c(Cl)c3)ncnc2cc1OCCCN1CCOCC1` [Canertinib] gave a normalised viability of 91.7%.
For `CC[C@H](Nc1ncnc2[nH]cnc12)c1nc2cccc(F)c2c(=O)n1-c1ccccc1` [CAL-101], the normalised viability was 80.9%.
Compound `CCCCC(=O)OCC(=O)[C@]1(O)Cc2c(O)c3c(c(O)c2[C@@H](O[C@H]2C[C@H](NC(=O)C(F)(F)F)[C@H](O)[C@H](C)O2)C1)C(=O)c1c(OC)cccc1C3=O` [Valrubicin] has a normalised viability of 77%.

The compounds below were run on MFM-223 in the same assay as above. Conditions: 100 nM; incubation time: 72 h.
Experimental: as §1
With `Nc1ccccc1NC(=O)c1ccc(CNC(=O)OCc2cccnc2)cc1` [Entinostat] the normalised viability was 100%.
For `C=CC(=O)Nc1cc2c(Nc3ccc(F)c(Cl)c3)ncnc2cc1OCCCN1CCOCC1` [Canertinib], the normalised viability was 98.3%.
`CC[C@H](Nc1ncnc2[nH]cnc12)c1nc2cccc(F)c2c(=O)n1-c1ccccc1` [CAL-101] gave a normalised viability of 88.3%.
Compound `CCCCC(=O)OCC(=O)[C@]1(O)Cc2c(O)c3c(c(O)c2[C@@H](O[C@H]2C[C@H](NC(=O)C(F)(F)F)[C@H](O)[C@H](C)O2)C1)C(=O)c1c(OC)cccc1C3=O` [Valrubicin] has a normalised viability of 91.9%.

These compounds were tested on MDA-MB-468 (assay: drug sensitivity score (DSS), CellTiter-Blue viability (DSS (AUC-based score)); higher = stronger viability inhibition; extreme values may be limits of the assay). Conditions: incubation time: 72 h.
Procedure, shortened: (§2)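 Each 384-well plate was normalised to two references, 0.1 % DMSO and a positive kill control. Breast cancer cell lines (20 µl suspension) had been seeded onto compound at 5 or 9 concentrations and incubated 72 h, after which viability was read by CellTiter-Blue fluorescence at 560/590 nm. The drug sensitivity score reflects the area under the fitted dose-response curve.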
In the case of `Nc1ccccc1NC(=O)c1ccc(CNC(=O)OCc2cccnc2)cc1` [Entinostat], the drug sensitivity score is reported as 7.4.
For `C=CC(=O)Nc1cc2c(Nc3ccc(F)c(Cl)c3)ncnc2cc1OCCCN1CCOCC1` [Canertinib], the drug sensitivity score was 13.9.
For `CC[C@H](Nc1ncnc2[nH]cnc12)c1nc2cccc(F)c2c(=O)n1-c1ccccc1` [CAL-101], the drug sensitivity score was 2.46.
Compound `CCCCC(=O)OCC(=O)[C@]1(O)Cc2c(O)c3c(c(O)c2[C@@H](O[C@H]2C[C@H](NC(=O)C(F)(F)F)[C@H](O)[C@H](C)O2)C1)C(=O)c1c(OC)cccc1C3=O` [Valrubicin] has a drug sensitivity score of 11.7.

Each compound was assayed on MFM-223 in the same assay as above. Conditions: incubation time: 72 h.
Procedure, shortened: as §2
For `Nc1ccccc1NC(=O)c1ccc(CNC(=O)OCc2cccnc2)cc1` [Entinostat], the drug sensitivity score was 5.32.
`C=CC(=O)Nc1cc2c(Nc3ccc(F)c(Cl)c3)ncnc2cc1OCCCN1CCOCC1` [Canertinib] was tested, and the drug sensitivity score was 5.96.
`CC[C@H](Nc1ncnc2[nH]cnc12)c1nc2cccc(F)c2c(=O)n1-c1ccccc1` [CAL-101] gave a drug sensitivity score of 0.
`CCCCC(=O)OCC(=O)[C@]1(O)Cc2c(O)c3c(c(O)c2[C@@H](O[C@H]2C[C@H](NC(=O)C(F)(F)F)[C@H](O)[C@H](C)O2)C1)C(=O)c1c(OC)cccc1C3=O` [Valrubicin] showed a drug sensitivity score of 6.7.

These compounds were tested on MDA-MB-468 (assay: normalised viability (% of control), CellTiter-Blue; higher = more viable cells (100 = DMSO, 0 = benzethonium chloride kill control)). Conditions: 1 nM; incubation time: 72 h.
Experimental: (§3)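 DSRT, CellTiter-Blue viability, 72 h incubation. Signal is normalised to DMSO and benzethonium chloride controls. Value is the normalised response at dose 1.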
`Nc1ccccc1NC(=O)c1ccc(CNC(=O)OCc2cccnc2)cc1` [Entinostat] showed a normalised viability of 110%.
Work on `C=CC(=O)Nc1cc2c(Nc3ccc(F)c(Cl)c3)ncnc2cc1OCCCN1CCOCC1` [Canertinib] yielded a normalised viability of 110%.
For `CC[C@H](Nc1ncnc2[nH]cnc12)c1nc2cccc(F)c2c(=O)n1-c1ccccc1` [CAL-101], the normalised viability was 100%.
Work on `CCCCC(=O)OCC(=O)[C@]1(O)Cc2c(O)c3c(c(O)c2[C@@H](O[C@H]2C[C@H](NC(=O)C(F)(F)F)[C@H](O)[C@H](C)O2)C1)C(=O)c1c(OC)cccc1C3=O` [Valrubicin] yielded a normalised viability of 84.3%.

These compounds were tested on MFM-223 in the same assay as above. Conditions: 1 nM; incubation time: 72 h.
Experimental: as §3
In the case of `Nc1ccccc1NC(=O)c1ccc(CNC(=O)OCc2cccnc2)cc1` [Entinostat], the normalised viability is reported as 98.7%.
Work on `C=CC(=O)Nc1cc2c(Nc3ccc(F)c(Cl)c3)ncnc2cc1OCCCN1CCOCC1` [Canertinib] yielded a normalised viability of 92.8%.
With `CC[C@H](Nc1ncnc2[nH]cnc12)c1nc2cccc(F)c2c(=O)n1-c1ccccc1` [CAL-101] the normalised viability was 91.1%.
`CCCCC(=O)OCC(=O)[C@]1(O)Cc2c(O)c3c(c(O)c2[C@@H](O[C@H]2C[C@H](NC(=O)C(F)(F)F)[C@H](O)[C@H](C)O2)C1)C(=O)c1c(OC)cccc1C3=O` [Valrubicin] was tested, and the normalised viability was 90.3%.
